Square brackets hold non-standard residues; d marks the D form. Peptide text beside a SMILES is read from it. * marks the point of attachment. PhAc = O=C(Cc1ccccc1)*
System: New Zealand white rabbits
Test: Rabbit heterotopic cardiac allograft model
Assay type: in vivo
From the text: New Zealand white female rabbits (Charles River Lab., Saint Laurent, Quebec), between 3.5 and 4 kg underwent heterotopic cardiac transplant following an experimental protocol previously described [Alonso et al., Am. J. Pathol., 87:415-442 (1977); Clausell et al., Circulation, 89:2768-2779 (1994)]. The animals were unselected to favor an HLA-mismatch, the host rabbits were Pasteurella-free and the donors, outbred animals. Both host and donor rabbits were fed Purina 5321-0.5 percent cholesterol diet (Research Diets Inc., New Brunswick, N.J.), a strategy that has proven useful in accelerating the process of allograft arteriopathy [Alonso et al., Am, J. Pathol., 87:415-442 (1977)]. The diet was commenced four days prior to the transplant and continued in the recipient of the transplant until the completion of the experimental period.
The technique of heterotopic cardiac transplantation has been previously described [Clausell et al., Circulation, 89:2768-2779 (1994)]. Briefly, a vertical incision was performed in the anterior aspect of the neck of the recipient rabbit and the left common carotid artery and the ipsilateral external jugular vein were isolated. The cardiac allograft was placed in the neck by anastomosing the aorta end-to-side to the recipient's carotid artery and the pulmonary end-to-side to the recipient's external jugular vein, following a total period of ischemia for the donor hearts of approximately 30 minutes. Postoperative care was in compliance with the Principles of Laboratory Animal Care formulated by the Canadian National Society for Medical Research.
Beginning the day of the transplant, the animals were randomized and treated with either scrambled compound (control group) at 1 mg/kg s.c. or the inhibitor compound at 1 mg/kg s.c. The doses of the compounds were empirically extrapolated to the in vivo model based on preliminary in vitro studies, of Table 1. No other immunosuppression therapy was administered. The grafts were monitored daily by palpation and maintained for 7 to 8 days, a previously described endpoint that was associated with myocardial rejection (impaired cardiac contractility) and development of the allograft arteriopathy in this model [Clausell et al., Circulation, 89:2768-2779 (1994)]. A total of fourteen animals were studied in the control (n=7) and treated (n=7) groups.
The animals were sacrificed using a lethal dose of euthanol (480 mg i.v.) (MTC Pharmaceutical, Cambridge, ON), host and donor hearts were removed, and the coronary arteries were perfused with saline through the aorta, followed by light fixation by perfusion with 2 percent paraformaldehyde (Sigma, St, Louis, Mo.). […] Different sections of the hearts were either saved in 10 percent formalin (BDH Inc., Toronto, ON) for light microscopy studies or immediately frozen in O.T.C. Compound Tissue Tek (Miles Inc., Elkart, Ind.) for specific immunohistochemistry studies.
Three different paraffin-embedded tissue sections from host and donor hearts from both control and treated rabbits were stained by the Movat pentachrome method for light microscopy. Morphometric analysis was performed using a Zeiss microscope attached to a computer-generated video analysis system (Perceptics Inc., NuVision software), as described in Clausell et al., Circulation, 89:2768-2779 (1994). The number of vessels with intimal lesions were counted in all three heart sections from each animal studied and are expressed as a percentage of the total vessel number.
In the host hearts, 999 vessels in the control group and 1054 vessels in the treated group were analyzed. In the donor hearts, 827 vessels in the control group and 617 vessels in the treated group were analyzed. To determine the severity of intimal thickening, the diameter of each traceable vessel in all three sections was measured and the coronary arteries were categorized as small (diameter <100 μm), medium (diameter >100<500 μm) and large (diameter >500 μm). […]

CC(C)C[C@H](NC(=O)[C@H](CC(=O)O)NC(=O)Cc1ccccc1)C(=O)N[C@@H](Cc1ccccc1)C(=O)N1CCC[C@@H]1C(N)=O [N-phenylacetyl-Asp-Leu-Phe-D-Pro-NH2, reference compound] (PhAc-DLF[dP]-NH2)
Vessel Intimal Thickening: Percent of Vessels (donor heart, 1 mg/kg s.c.): 88%
Vessel Intimal Thickening: Severity (Percent of Vessel area) (donor heart, 1 mg/kg s.c.): 36%
Baseline of incidence of intimal thickening (rabbit own host heart): 1%
Baseline of severity of intimal thickening (rabbit own host heart): 12%

Source: patent publication US5821231A, “CS-1 peptidomimetics, compositions and methods of using same” (Cytel Corporation, priority 1995, dated 1998)
